In paper PMC12168616, “Machine Learning‐Assisted Prediction and Generation of Antimicrobial Peptides” (Small Science, 2025):

Tested on: ESKAPE pathogens
Experiment: MIC assay, bacteria, strain of the six not assignable or not specified
Assay type: cell-based
Conditions: one of the six ESKAPE strains, left to right order; MHB II, 18–24 h, 37 °C, OD600 nm, ≥90% inhibition, duplicates
Excerpt: To evaluate the susceptibility of the different peptide sequences against clinical isolates of various bacterial pathogens, we used the minimum inhibitory concentration (MIC) assay. The MIC measures the efficacy of peptides in inhibiting bacterial growth. The specific MIC values of various peptides against Enterococcus […] ATCC19433, Staphylococcus aureus ATCC25923, Klebsiella pneumoniae ATCC43816, Acinetobacter baumannii AB5075, Pseudomonas aeruginosa PAO1, and Enterobacter species ATCC13048 were determined by measuring optical density at 600 nm (OD600 nm). […] The growth inhibition curves were used to estimate the MIC values.
Bacteria: The MIC was the lowest concentration of a drug, which inhibited the visible growth of a bacteria and could be determined by reading the absorption at 600 nm (OD600 nm) using a spectrophotometer. The peptides were subjected to antibacterial testing against gram‐positive and gram‐negative pathogens. All the ESKAPE pathogens (E. faecalis ATCC19433, S. aureus ATCC25923, K. pneumoniae ATCC43816, A. baumannii AB5075, P. aeruginosa PAO1, and E. aerogenes ATCC13048) were inoculated from nutrient agar plates to obtain a bacterial suspension by incubating the colony of bacteria in a flask containing 10 mL of Mueller Hinton broth II (MHB) at 37 °C for 24 h with gentle shaking (75 rpm). The bacterial suspensions were then diluted in MHB to 1 × 10^6 colony‐forming units (CFU) of bacteria mL^−1. Next, using serial dilutions in 96‐well plates, different concentrations of each peptide from 1.5–400 μM were prepared. 100 μL of peptide solutions at final concentration ranging between 0.75–200 μM were then added to a 96‐well plate containing 100 μL of diluted bacterial suspension. After 18–24 h incubation at 37 °C, the turbidity of the samples was observed, and the optical density of bacteria was measured using OD600 nm. All assays were performed in duplicates. The MICs were calculated as ≥90% inhibition of bacteria growth compared to the positive control wells.

Row | Sequence | MIC, Table S7, 4th value printed in the line (strain column cannot be told)
1 | PKWHKNKMFKFKRKF [MLWH98, peptide generated using algorithm, list 2] | 200 µM
2 | PSKYAKIAIKFHKQI [MLWH61, peptide generated using algorithm, list 2] | 50 µM
3 | QGWIKIILPHIRYIK [MLWH57, peptide generated using algorithm, list 2] | 25 µM
4 | VIYSIGLRIFNKIRP [MLWH99, peptide generated using algorithm, list 2] | 200 µM
